Measured values as given in patent US20240041898A9, “NEUROSTEROIDS AND ENANTIOMERS THEREOF FOR THE PREVENTION AND TREATMENT OF NEURODEGENERATIVE CONDITIONS” (priority 2019, published 2024).
Where “and” joins values, the source holds several entries; their conditions need not be identical. Equal entries are not always repeated.

Columns and labels:
[1] = tested on: retinal ganglion cells (RGCs); test: Rat in vivo OHT model, NeuN-positive RGC survival in whole mount retina; conditions: OHT eyes, intravitreal, three weeks after microbead injection; single values
Description: Example 7. Rat in vivo OHT model induced by intracameral injection of microbeads—For induction of ocular hypertension (OHT) in vivo, sterile 6 μm polystyrene microbeads were injected into the anterior chamber of the left eye of each animal using a single-step, sclero-corneal tunnel approach with a 35G nanoneedle (FIG. 4A). […] After stabilization of elevated IOP, animals were randomly divided into 3 groups (non-treated OHT, AlloP injection, and ent-AlloP injection). AlloP and ent-AlloP were administered as a one-time intravitreal injection one week following bead injection. Non-treated OHT animals received sterile vehicle intravitreally. As a further control, vehicle was intravitreally injected 7 days after intracameral administration of 10 μl of PBS. Three weeks after bead injections, IOP was 26.7±3.7 mmHg in non-treated OHT eyes compared to 9.9±0.9 mmHg in control eyes. […]

[2] = tested on: GABAA receptors; conditions: cited from earlier work

Row | SMILES | RGC Survival (FIG. 4N), number of NeuN-positive cells, individual 1-5 [1] | action on GABAA receptors [2]
1 | CC(=O)[C@H]1CC[C@H]2[C@@H]3CC[C@H]4C[C@H](O)CC[C@]4(C)[C@H]3CC[C@]12C [AlloP, allopregnanolone] | 2200 per square millimeter and 2240 per square millimeter and 1940 per square millimeter and 1860 per square millimeter and 1800 per square millimeter | strong enhancer
2 | CC(=O)[C@@H]1CC[C@@H]2[C@H]3CC[C@@H]4C[C@@H](O)CC[C@@]4(C)[C@@H]3CC[C@]21C [ent-AlloP, ent-allopregnanolone] | 2060 per square millimeter and 2260 per square millimeter and 2500 per square millimeter and 2200 per square millimeter and 2460 per square millimeter | weak actions
